The values below come from patent publication US20220041647A1, “ESTRA-1,3,5(10)-TRIENE COMPOUNDS CONDENSED IN POSITION 16(17) WITH A PYRAZOLE RING AS INHIBITORS OF 17-HSD1” (FORENDO PHARMA LTD, priority 2018, published 2022).

Data set [1] has as its target T1, recombinant human 17β-HSD2 (Homo sapiens, UniProt P37059).
T1 construct: made in house; host or cells: Sd9 (Sf9) insect cells, baculovirus (Bac to Bac Expression System)
T1 sequence (P37059 1-387): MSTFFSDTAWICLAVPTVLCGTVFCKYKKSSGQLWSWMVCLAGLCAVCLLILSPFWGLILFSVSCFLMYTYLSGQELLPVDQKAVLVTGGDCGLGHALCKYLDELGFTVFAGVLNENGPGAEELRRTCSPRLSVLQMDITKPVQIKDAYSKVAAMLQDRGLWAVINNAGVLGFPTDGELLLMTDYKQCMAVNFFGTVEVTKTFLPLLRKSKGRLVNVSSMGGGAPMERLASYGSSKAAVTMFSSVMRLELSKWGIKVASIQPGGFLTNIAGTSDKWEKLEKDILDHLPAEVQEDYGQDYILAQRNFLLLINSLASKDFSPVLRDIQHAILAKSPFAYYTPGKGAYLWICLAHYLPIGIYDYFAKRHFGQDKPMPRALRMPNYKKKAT
Briefly: Inhibition of recombinant human 17β-HSD2 (estradiol to estrone conversion, HPLC/radioactivity). In kind it is biochemical. As to conditions: compound 1 μM; 50 nM estradiol, 1 mM NADH, 30 min RT. The method in brief:
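Membrane extract of Sf9 cells expressing recombinant human 17β-HSD2 (4 μg/ml), in 20 mM KH2PO4 pH 8.5 with 50 nM ^3H-spiked estradiol and 1 mM NADH, 30 min at RT, 1% DMSO. Compound at 1 μM or 0.1 μM; estrone formation by HPLC radioactivity, % inhibition relative to uninhibited conversion.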

Data set [2] in a line: Metabolic stability assay, human hepatocyte incubations. Format: in vitro ADME. As to conditions: compound 1 μM, human hepatocytes, 0-60 min at 37° C.; read-out: Human hepatocytes MetStab T½ min. The procedure:
Compound stock solutions of the invention were prepared in […]. Final concentration of DMSO was adjusted to 1% in all samples. The in vitro metabolic stability of the compounds of the invention was determined for exemplified compounds using human hepatocyte incubations; study compounds at concentration of 1 μM were incubated 0, 10, 20, 40 and 60 min at 37° C. Samples were collected at all time points and compounds were detected by LC-MS/MS analysis. The percent compound remaining is calculated by comparing the peak area of the parent compound at each time point to time zero. In vitro metabolic stability was determined as half life (T1/2), which was determined by regression analysis of the percent parent disappearance vs. time curve.

The inhibition is the drop in the measured response relative to a control, in per cent. Take `COc1ccnc(NC(=O)CC[C@@H]2c3c[nH]nc3[C@@]3(C)CCC4c5ccc(F)cc5CCC4C23)c1` (stereo partly drawn) [Compound 90, 3-((8aS,12S)-4-fluoro-8a-methyl-1,2,6b,7,8,8a,10,12,12a,12b-decahydronaphtho[2′,1′:4,5]indeno[1,2-c]pyrazol-12-yl)-N-(4-methoxypyridin-2-yl)propanamide]: in data set [1], the inhibition at 1 µM worked out at 3%. In data set [2], the half-life at 1 μM was 1.28 h.

For `Cc1ccnc(NC(=O)CC[C@@H]2c3c[nH]nc3[C@@]3(C)CCC4c5ccc(F)cc5CCC4C23)c1` (stereo partly drawn) [Compound 93, 3-((8aS,12S)-4-fluoro-8a-methyl-1,2,6b,7,8,8a,10,12,12a,12b-decahydronaphtho[2′,1′:4,5]indeno[1,2-c]pyrazol-12-yl)-N-(4-methylpyridin-2-yl)-propanamide], the inhibition at 1 µM in data set [1] amounted to 4%. Moreover, the half-life at 1 μM in data set [2] came to 1.1 h.

With `C[C@]12CCC3c4ccc(F)cc4CCC3C1[C@H](CCC(=O)Nc1ccc(N3CCOCC3)cn1)c1c[nH]nc12` (stereo partly drawn) [Compound 96, 3-((8aS,12S)-4-fluoro-8a-methyl-1,2,6b,7,8,8a,10,12,12a,12b-decahydronaphtho[2′,1′:4,5]indeno[1,2-c]pyrazol-12-yl)-N-(5-morpholinopyridin-2-yl)propanamide], in data set [1], the inhibition at 1 µM was determined as 5%. In addition, the half-life at 1 μM in data set [2] worked out at 1.25 h.

Take `C[C@]12CCC3c4ccc(F)cc4CCC3C1[C@H](CCC(=O)Nc1ccc(F)cn1)c1c[nH]nc12` (stereo partly drawn) [Compound 99, 3-((8aS,12S)-4-fluoro-8a-methyl-1,2,6b,7,8,8a,10,12,12a,12b-decahydronaphtho[2′,1′:4,5]indeno[1,2-c]pyrazol-12-yl)-N-(5-fluoropyridin-2-yl)propanamide]: the inhibition at 1 µM in data set [1] was 4%. Besides, in data set [2], the half-life at 1 μM stood at 1.62 h.

For `C[C@]12CCC3c4ccc(Cl)cc4CCC3C1[C@H](CCC(=O)Nc1cc3c([nH]c1=O)CCCC3)c1c[nH]nc12` (stereo partly drawn) [Compound 123, 3-((8aS,12S)-4-chloro-8a-methyl-1,2,6b,7,8,8a,10,12,12a,12b-decahydronaphtho[2′,1′:4,5]indeno[1,2-c]pyrazol-12-yl)-N-(2-oxo-1,2,5,6,7,8-hexahydroquinolin-3-yl) propanamide], the inhibition at 1 µM in data set [1] was determined as 8%. In data set [2], the half-life at 1 μM amounted to 2.58 h.

Take `CN(C)C(=O)c1ccc(NC(=O)CC[C@@H]2c3c[nH]nc3[C@@]3(C)CCC4c5ccc(Cl)cc5CCC4C23)nc1` (stereo partly drawn) [Compound 126, 6-(3-((8aS,12S)-4-chloro-8a-methyl-1,2,6b,7,8,8a,10,12,12a,12b-decahydronaphtho[2′,1′:4,5]indeno[1,2-c]pyrazol-12-yl)propanamido)-N,N-dimethylnicotinamide]: the inhibition at 1 µM in data set [1] was determined as 12%. Further, the half-life at 1 μM in data set [2] came out at 2.45 h.

Regarding `CC(C)c1ccc(NC(=O)CC[C@@H]2c3c[nH]nc3[C@@]3(C)CCC4c5ccccc5CCC4C23)nc1` (stereo partly drawn) [Compound 138, N-(5-isopropylpyridin-2-yl)-3-((8aS,12S)-8a-methyl-1,2,6b,7,8,8a,10,12,12a,12b-decahydronaphtho[2′,1′:4,5]indeno[1,2-c]pyrazol-12-yl)propanamide], the inhibition at 1 µM in data set [1] was 7%. In addition, the half-life at 1 μM in data set [2] turned out to be 0.85 h.

As for `COc1ccc(NC(=O)CC[C@@H]2c3c[nH]nc3[C@@]3(C)CCC4c5ccccc5CCC4C23)nc1` (stereo partly drawn) [Compound 141, N-(5-methoxypyridin-2-yl)-3-((8aS,12S)-8a-methyl-1,2,6b,7,8,8a,10,12,12a,12b-decahydronaphtho[2′,1′:4,5]indeno[1,2-c]pyrazol-12-yl)propanamide], in data set [1], the inhibition at 1 µM was -1%. The half-life at 1 μM in data set [2] came to 0.75 h.

Turning to `COc1ccc(NC(=O)CC[C@@H]2c3c[nH]nc3[C@@]3(C)CCC4c5ccccc5CCC4C23)nn1` (stereo partly drawn) [Compound 156, N-(6-methoxypyridazin-3-yl)-3-((8aS,12S)-8a-methyl-1,2,6b,7,8,8a,10,12,12a,12b-decahydronaphtho[2′,1′:4,5]indeno[1,2-c]pyrazol-12-yl)propanamide], in data set [1], the inhibition at 1 µM is -3%. Further, in data set [2], the half-life at 1 μM amounted to 1.55 h.

Regarding `C[C@]12CCC3c4ccccc4CCC3C1[C@H](CCC(=O)Nc1ccc(F)cn1)c1c[nH]nc12` (stereo partly drawn) [Compound 159, N-(5-fluoropyridin-2-yl)-3-((8aS,12S)-8a-methyl-1,2,6b,7,8,8a,10,12,12a,12b-decahydronaphtho[2′,1′:4,5]indeno[1,2-c]pyrazol-12-yl)propanamide], in data set [1], the inhibition at 1 µM was determined as 3%. Moreover, the half-life at 1 μM in data set [2] came to 1.28 h.

Consider `C[C@]12CCC3c4ccccc4CCC3C1[C@H](CCC(=O)Nc1cc(F)ccn1)c1c[nH]nc12` (stereo partly drawn) [Compound 162, N-(4-fluoropyridin-2-yl)-3-((8aS,12S)-8a-methyl-1,2,6b,7,8,8a,10,12,12a,12b-decahydronaphtho[2′,1′:4,5]indeno[1,2-c]pyrazol-12-yl)propanamide], for which, in data set [1], the inhibition at 1 µM worked out at 9%. The half-life at 1 μM in data set [2] was found to be 1.38 h.

As for `COc1ccnc(NC(=O)CC[C@@H]2c3c[nH]nc3[C@@]3(C)CCC4c5ccccc5CCC4C23)c1` (stereo partly drawn) [Compound 165, N-(4-methoxypyridin-2-yl)-3-((8aS,12S)-8a-methyl-1,2,6b,7,8,8a,10,12,12a,12b-decahydronaphtho[2′1′:4,5]indeno[1,2-c]pyrazol-12-yl)propanamide], in data set [1], the inhibition at 1 µM was -2%. For the same compound, the half-life at 1 μM in data set [2] amounted to 0.733 h.

For the compound `Cc1ccnc(NC(=O)CC[C@@H]2c3c[nH]nc3[C@@]3(C)CCC4c5ccccc5CCC4C23)c1` (stereo partly drawn) [Compound 168, 3-((8aS,12S)-8a-methyl-1,2,6b,7,8,8a,10,12,12a,12b-decahydronaphtho[2′,1′:4,5]indeno[1,2-c]pyrazol-12-yl)-N-(4-methylpyridin-2-yl)propanamide], in data set [1], the inhibition at 1 µM was 5%. Moreover, in data set [2], the half-life at 1 μM is 1.13 h.

Turning to `C[C@]12CCC3c4ccccc4CCC3C1[C@H](CCC(=O)Nc1ccccn1)c1c[nH]nc12` (stereo partly drawn) [Compound 171, 3-((8aS,12S)-8a-methyl-1,2,6b,7,8,8a,10,12,12a,12b-decahydronaphtho[2′,1′:4,5]indeno[1,2-c]pyrazol-12-yl)-N-(pyridin-2-yl)propanamide], the inhibition at 1 µM in data set [1] was -1%. In data set [2], the half-life at 1 μM was 1.22 h.

Consider `C[C@]12CCC3c4ccccc4CCC3C1[C@H](CCC(=O)Nc1cnccn1)c1c[nH]nc12` (stereo partly drawn) [Compound 189, 3-((8aS,12S)-8a-methyl-1,2,6b,7,8,8a,10,12,12a,12b-decahydronaphtho[2′,1′:4,5]indeno[1,2-c]pyrazol-12-yl)-N-(pyrazin-2-yl)propanamide], for which the inhibition at 1 µM in data set [1] worked out at 9%. Moreover, the half-life at 1 μM in data set [2] is 0.5 h.

Take `C[C@]12CCC3c4cccc(F)c4CCC3C1[C@H](CCC(=O)NC1CCCCC1)c1c[nH]nc12` (stereo partly drawn) [Compound 207, N-cyclohexyl-3-((8aS,12S)-3-fluoro-8a-methyl-1,2,6b,7,8,8a,10,12,12a,12b-decahydronaphtho[2′,1′:4,5]indeno[1,2-c]pyrazol-12-yl)propanamide]: the inhibition at 1 µM in data set [1] turned out to be 4%. In addition, the half-life at 1 μM in data set [2] was found to be 0.3 h.

On to `C[C@]12CCC3c4cccc(F)c4CCC3C1[C@H](CCC(=O)N1CCCC1)c1c[nH]nc12` (stereo partly drawn) [Compound 210, 3-((8aS,12S)-3-fluoro-8a-methyl-1,2,6b,7,8,8a,10,12,12a,12b-decahydronaphtho[2′,1′:4,5]indeno[1,2-c]pyrazol-12-yl)-1-(pyrrolidin-1-yl)propan-1-one], for which the inhibition at 1 µM in data set [1] amounted to 0%. Also, in data set [2], the half-life at 1 μM came to 0.183 h.

On to `CCN(CC)C(=O)CC[C@@H]1c2c[nH]nc2[C@@]2(C)CCC3c4cccc(F)c4CCC3C12` (stereo partly drawn) [Compound 216, N,N-diethyl-3-((8aS,12S)-3-fluoro-8a-methyl-1,2,6b,7,8,8a,10,12,12a,12b-decahydronaphtho[2′,1′:4,5]indeno[1,2-c]pyrazol-12-yl)propanamide], for which the inhibition at 1 µM in data set [1] was found to be 6%. Further, the half-life at 1 μM in data set [2] was determined as 0.133 h.

`C[C@]12CCC3c4cccc(F)c4CCC3C1[C@H](CCC(=O)N1CCC3(CCOCC3)C1)c1c[nH]nc12` (stereo partly drawn) [Compound 219, 3-((8aS,12S)-3-fluoro-8a-methyl-1,2,6b,7,8,8a,10,12,12a,12b-decahydronaphtho[2′,1′:4,5]indeno[1,2-c]pyrazol-12-yl)-1-(8-oxa-2-azaspiro[4.5]decan-2-yl)propan-1-one]: the inhibition at 1 µM in data set [1] was found to be 3%. Besides, the half-life at 1 μM in data set [2] is 0.117 h.

`CN(C)C(=O)CC[C@@H]1c2c[nH]nc2[C@@]2(C)CCC3c4cccc(F)c4CCC3C12` (stereo partly drawn) [Compound 222, 3-((8aS,12S)-3-fluoro-8a-methyl-1,2,6b,7,8,8a,10,12,12a,12b-decahydronaphtho[2′,1′:4,5]indeno[1,2-c]pyrazol-12-yl)-N,N-dimethylpropanamide]: the inhibition at 1 µM in data set [1] was found to be 0%. Moreover, the half-life at 1 μM in data set [2] amounted to 0.2 h.
